“And” between values parts separate entries of the source, which are not always exact repeats. Equal entries are not always repeated.
Target: T1, Adenosine receptor A1 (Rattus norvegicus, UniProt P25099)
T1 sequence (P25099 whole entry): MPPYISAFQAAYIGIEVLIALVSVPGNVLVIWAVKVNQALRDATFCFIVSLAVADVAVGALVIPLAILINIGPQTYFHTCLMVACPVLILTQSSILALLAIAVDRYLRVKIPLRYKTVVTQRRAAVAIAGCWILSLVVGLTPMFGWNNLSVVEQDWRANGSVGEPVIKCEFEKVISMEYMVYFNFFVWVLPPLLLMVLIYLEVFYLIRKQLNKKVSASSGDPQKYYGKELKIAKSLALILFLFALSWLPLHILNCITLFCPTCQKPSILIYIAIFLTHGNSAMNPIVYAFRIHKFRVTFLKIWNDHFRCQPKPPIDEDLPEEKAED
Assay: Evaluated for binding affinity against Adenosine A1 receptor

| Structure (SMILES) | IC50 | Ki [nM] |
| --- | --- | --- |
| OC[C@H]1O[C@@H](n2cnc3c(NC4CC4)ncnc32)[C@H](O)[C@@H]1O | 2.09 nM | – |
| OC[C@H]1OC(n2cnc3c(NCC4CCCCC4)ncnc32)[C@H](O)[C@@H]1O (stereo partly specified) | 39.8 nM | – |
| COc1ccccc1Nc1ncnc2c1ncn2C1O[C@H](CO)[C@@H](O)[C@H]1O (stereo partly specified) | 85.1 nM | – |
| Cc1ccccc1Nc1ncnc2c1ncn2C1O[C@H](CO)[C@@H](O)[C@H]1O (stereo partly specified) | 8.91 nM | – |
| OC[C@H]1OC(n2cnc3c(Nc4cccc(F)c4)ncnc32)[C@H](O)[C@@H]1O (stereo partly specified) | 1 nM | – |
| COc1cccc(Nc2ncnc3c2ncn3C2O[C@H](CO)[C@@H](O)[C@H]2O)c1 (stereo partly specified) | 46.8 nM | – |
| OC[C@H]1OC(n2cnc3c(Nc4ccccc4F)ncnc32)[C@H](O)[C@@H]1O (stereo partly specified) | 3.98 nM | – |
| OC[C@H]1OC(n2cnc3c(Nc4ccc(F)cc4)ncnc32)[C@H](O)[C@@H]1O (stereo partly specified) | 2 nM | – |
| CCCc1ccccc1Nc1ncnc2c1ncn2C1O[C@H](CO)[C@@H](O)[C@H]1O (stereo partly specified) | 1.2 nM | – |
| Cc1cccc(Nc2ncnc3c2ncn3C2O[C@H](CO)[C@@H](O)[C@H]2O)c1 (stereo partly specified) | 26.9 nM | – |
| CCCc1ccccc1Nc1ncnc2c1ncn2C1OC(CO)[C@@H](O)[C@H]1O (single isomer, unassigned) | 52.5 nM | – |
| OC[C@H]1O[C@@H](n2cnc3c(Nc4ccccc4)ncnc32)[C@H](O)[C@@H]1O [N6-PHENYLADENOSINE] | 3.31 nM | – |

Next, values leading:

| IC50 | Ki [nM] | Structure (SMILES) |
| --- | --- | --- |
| 8.91 nM and 4.57 nM | – | COc1ccc(Nc2ncnc3c2ncn3[C@@H]2O[C@H](CO)[C@@H](O)[C@H]2O)cc1 |
| – | 2.4 | Cn1c(=O)c2nc(-c3cccc(F)c3)[nH]c2n(C)c1=O |
| – | 891 | CCCn1c(=O)c2nc(Cc3ccccc3)[nH]c2n(CCC)c1=O |
| – | 11 | CCCn1c(=O)c2[nH]c(-c3ccccc3)nc2n(CCC)c1=O |
| – | 38.9 | CCCn1c(=O)c2[nH]c(CC3CCCCC3)nc2n(CCC)c1=O |
| – | 0.513 | Cc1ccc(-c2nc3c([nH]2)c(=O)n(C)c(=O)n3C)cc1 |
| – | 0.646 | Cn1c(=O)c2[nH]c(-c3ccc(Cl)cc3)nc2n(C)c1=O |
| – | 5.37 | Cc1cccc(-c2nc3c([nH]2)c(=O)n(C)c(=O)n3C)c1 |
| – | 1.82 | Cn1c(=O)c2[nH]c(-c3ccc(F)cc3)nc2n(C)c1=O |
| – | 6.76 | Cn1c(=O)c2[nH]c(-c3ccccc3F)nc2n(C)c1=O |
| – | 4.57 | CCCn1c(=O)c2nc(-c3ccc(OC)cc3)[nH]c2n(CCC)c1=O |
| – | 191 | COc1ccccc1-c1nc2c([nH]1)c(=O)n(C)c(=O)n2C |
| 4.9 nM | – | Cc1ccc(Nc2ncnc3c2ncn3C2O[C@H](CO)[C@@H](O)[C@H]2O)cc1 (stereo partly specified) |
| 2.19 nM | – | OC[C@H]1OC(n2cnc3c(Nc4ccc(Cl)cc4)ncnc32)[C@H](O)[C@@H]1O (stereo partly specified) |

Reference: ChEMBL document CHEMBL1126162, “A steric and electrostatic comparison of three models for the agonist/antagonist binding site on the adenosine A1 receptor” (J Med Chem, 1992)
